The values below are quoted from earlier work in patent US4361703A, “Para-amino(or nitro)phenyl N-acetylaminothioalkanoates” (priority 1977, dated 1982).

One data set concerns mice. Particulars: mouse, in vivo; cited from earlier work.
For data set [1], the system named is lethal and hepatotoxic effects of paracetamol overdosage. As to conditions: cited from earlier work.
For the next data set, the system named is death and liver injury. Particulars: cited from earlier work.

Regarding `CC(=O)N[C@@H](CS)C(=O)O` [N-acetylcysteine], the 48 hour survival result in the data set on mice was “significantly improved 48 hour survival in mice”.
For `CSCC[C@H](N)C(=O)O` [methionine], the “effect of methionine combined with paracetamol” value in data set [1] is “greatly reducing the lethal and hepatotoxic effects of paracetamol overdosage”. Further, in the data set on death and liver injury, the “effect of methionine added to oral paracetamol dose” value was “protects against death and liver injury”.
